This passage reports IC50 results from BindingDB's records for doi:10.1021/acs.jmedchem.9b01161 (Research Triangle Institute, 2019).

Experiment [1] deals with T1, Cannabinoid receptor 1 (Homo sapiens, UniProt P21554). Briefly: Allosteric modulator activity at human CB1 receptor expressed in CHO-RD-HGA16 cells co-expressing Galpha16 assessed as suppression of 100 nM CP55,940-induced calcium mobilization pre-incubated for 15 mins by Calcium 5 dye based FLIPR assay.
In experiment [2] the target is T1, Cannabinoid receptor 1. Put plainly: Allosteric modulator activity at human CB1 receptor expressed in HEK293 cell membranes assessed as suppression of 100 nM CP55,940-induced [35S]GTPgammaS binding incubated for 60 mins by scintillation counting method. (Binding of GTPγS marks nucleotide exchange on a G protein.)

T1 sequence (P21554 whole entry): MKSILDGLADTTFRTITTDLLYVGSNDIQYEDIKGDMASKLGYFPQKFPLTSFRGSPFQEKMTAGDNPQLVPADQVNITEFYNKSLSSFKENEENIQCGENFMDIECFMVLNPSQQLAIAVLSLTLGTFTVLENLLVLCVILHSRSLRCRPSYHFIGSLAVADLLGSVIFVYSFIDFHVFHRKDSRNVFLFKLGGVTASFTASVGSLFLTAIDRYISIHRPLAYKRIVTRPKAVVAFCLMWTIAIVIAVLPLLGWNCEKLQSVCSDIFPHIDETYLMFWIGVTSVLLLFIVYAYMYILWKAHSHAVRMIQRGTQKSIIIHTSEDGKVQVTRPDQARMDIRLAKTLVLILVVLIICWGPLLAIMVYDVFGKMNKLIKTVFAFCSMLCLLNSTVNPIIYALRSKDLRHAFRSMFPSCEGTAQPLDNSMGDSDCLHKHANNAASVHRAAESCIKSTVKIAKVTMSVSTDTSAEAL

As to `O=C(Nc1ccc(Cl)cc1)N[C@H]1C[C@H]1c1ccccc1`, the IC50 at Cannabinoid receptor 1 [1] and at Cannabinoid receptor 1 [2] was over 10 µM each time. Turning to `COc1ccc(-c2cccc(N3CCCC3)n2)cc1NC(=O)Nc1ccc(Cl)cc1`, the IC50 at Cannabinoid receptor 1 [2] was over 10 µM.

One may read the IC50 as the concentration that gives 50% inhibition.
